For test [1], the system named is Thi-5R-18 (DNA, aptamer) ATAGGAGTCACGACGACCAGAAGGGCAAATAGCATAATGGATCACATTAGATGAGCCCAGGCTATGTGCGTCTACCTCTTGACTAAT
The test is described as follows: AuNP colorimetric aptasensor. As to conditions: NaCl 0.25 M added for aggregation; 10^−7 M tested; response below one tenth of thiamethoxam at 10^−8 M.

In test [2] the test system is truncated Thi-5R-18 (DNA, aptamer) GAAGGGCAAATAGCATAATGGATCACATTAGATGAGCCCAGGCTATGTGCG
Description: isothermal titration calorimetry. The settings on record: 5 mM KCl, 100 mM NaCl, 1 mM MgCl2; 50 mM Tris-HCl, pH 7.4, 25 °C; Kd could not be fitted; thiamethoxam 1 mM. (In general: ITC needs no label: the signal is the heat of the interaction.)

Test [3] relates to Thi-5R-18 (DNA, aptamer) ATAGGAGTCACGACGACCAGAAGGGCAAATAGCATAATGGATCACATTAGATGAGCCCAGGCTATGTGCGTCTACCTCTTGACTAAT
Description: isothermal titration calorimetry. As to conditions: 5 mM KCl, 100 mM NaCl, 1 mM MgCl2; 50 mM Tris-HCl, pH 7.4, 25 °C; 25 μM aptamer, 1 mM thiamethoxam.

We go through five molecules from PMC9953353 (2023).

SMILES strings stand for the structures.

Regarding `CN/C(=N\[N+](=O)[O-])NCc1cnc(Cl)s1`, in test [1], the binding entry is “weak”.

Take `CN1COCN(Cc2cnc(Cl)s2)C1=N[N+](=O)[O-]`: the binding entry in test [2] is “no”. Besides, the Kd (in general, a measure of binding affinity in units of concentration) in test [3] is 49.35 µM.

Turning to `CNC(=N[N+](=O)[O-])NCC1CCOC1` (stereo not drawn), the binding entry in test [1] was “weak”.

`O=C(O)CNCP(=O)(O)O`: in test [1], the binding result is on record as “weak”.

On to `O=[N+]([O-])N=C1NCCN1Cc1ccc(Cl)nc1`, for which the binding entry in test [1] was “weak”.
